Test results from publication PMC8409973, “Synthesis, antiproliferative and antitrypanosomal activities, and DNA binding of novel 6-amidino-2-arylbenzothiazoles” (Journal of Enzyme Inhibition and Medicinal Chemistry, 2021).
“Also recorded” adds a separate entry of the source. Like-named read-outs stand apart in the source and are kept apart here.

Columns and labels:
[1] = system: CFPAC-1 (pancreatic adenocarcinoma); assay: Proliferation assay (MTT, 72 h) on CFPAC-1; assay type: cell-based; conditions: Homo sapiens, CFPAC-1, 72 h
Procedure: (§1) Human cell lines SW620 (colorectal adenocarcinoma, metastatic), MCF-7 (human breast adenocarcinoma), CFPAC-1 (pancreatic adenocarcinoma), HeLa (cervical carcinoma), and HFF-1 (human foreskin fibroblasts) were obtained from the American Type Culture Collection (ATCC). Cells were cultured in a humidified atmosphere at 37 °C with 5% CO2. As a growth medium, Dulbecco’s modified Eagle medium (DMEM) was used with the addition of foetal bovine serum (10%), L-glutamine (2 mM), and antibiotics: streptomycin ([…]) and penicillin (100 U/ml).
(§2) Cells were seeded onto 96-well microtiter plates at a seeding density of 3000 cells/well for carcinoma cell lines, and 5000 cells/well for normal human fibroblasts. The next day, cells were treated with test agents at five different concentrations (0.01–100 µM) and further incubated for 72 h. […] 5-Fluorouracil (5-FU, 0.384 M fluorouracilum, Pliva 500 mg/10 ml) dissolved in physiological solution was used as a positive control. Following 72 h incubation, the MTT assay was performed and measured absorbances were transformed into a percentage of cell growth as described previously. Results were obtained from three independent experiments. IC50 values were calculated using linear regression analysis (FORECAST option taking into account the concentration range of two experimental points above and below IC50).

[2] = system: WI-38 fibroblast cell line; assay: Growth inhibition of WI-38 fibroblasts (control substance); assay type: cell-based; conditions: Homo sapiens; WI-38 fibroblast cell line (footnote c)
[3] = system: HeLa (cervical carcinoma); assay: Proliferation assay (MTT, 72 h) on HeLa; assay type: cell-based; conditions: Homo sapiens
Procedure: as §1, §2

[4] = system: SW620 (colorectal adenocarcinoma, metastatic); assay: Proliferation assay (MTT, 72 h) on SW620; assay type: cell-based; conditions: Homo sapiens, SW-620, SW620, 72 h
Procedure: as §1, §2

[5] = system: MCF-7 (human breast adenocarcinoma); assay: Proliferation assay (MTT, 72 h) on MCF-7; assay type: cell-based; conditions: MCF7, MCF-7, 72 h
Procedure: as §1, §2

[6] = system: L6 cells (a rat myoblast line); assay: L6 cell proliferation (cytotoxicity, resazurin); assay type: cell-based; conditions: 144 h; rat myoblast L6, 6 days
ctDNA [7] = assay: CD titration of ctDNA; assay type: binding, calf; conditions: for induced CD (ICD) signal with ctDNA: CD titration, pH 7.0, λ > 300 nm; for binding mode to ctDNA: concluded from ICD, ΔTm and binding constants
Procedure: (§3) These solutions were used for measurements in an aqueous buffer (pH = 7, sodium cacodylate buffer, I = 0.05 mol dm^−3). Polynucleotides were purchased as noted: poly (dAdT)2 and calf thymus ctDNA (Sigma-Aldrich). Polynucleotides were dissolved in Na-cacodylate buffer, I = 0.05 mol dm^−3, pH = 7. The calf thymus ctDNA was additionally sonicated and filtered through a […]. Polynucleotide concentration was determined spectroscopically[50]^,[51] as the concentration of phosphates.
CD spectra were recorded on a JASCO J815 spectrophotometer in 1 cm path quartz cuvettes. CD parameters: range = 500–220 nm, data pitch = 2, standard sensitivity, scanning speed = 200 nm/min, accumulation = 3–5. Titrations were performed at 25 °C and pH = 7 (I = 0.05 mol dm^−3, sodium cacodylate buffer). CD experiments were done by adding portions of the compound stock solution into the polynucleotide solution.

ctDNA [8] = assay: Thermal denaturation of ctDNA; assay type: binding, calf; conditions: r = [compound]/[polynucleotide] = 0.3, pH 7.0; error ±0.5 °C
Procedure: as §3
(§4) The UV/Vis spectra were recorded on a Varian Cary 100 Bio spectrophotometer using 1 cm path quartz cuvettes. Calibration experiments were performed at 25 °C and pH = 7 (I = 0.05 mol dm^−3, sodium cacodylate buffer). Absorption maxima and corresponding molar extinction coefficients (ε) of benzothiazole derivatives are given in Table S1 (Supplementary material). Thermal melting curves for DNA and their complexes with studied compounds were determined as previously described by following the absorption change at 260 nm as a function of temperature. The absorbance of the ligands was subtracted from every curve and the absorbance scale was normalised. Tm values are the midpoints of the transition curves determined from the maximum of the first derivative and checked graphically by the tangent method. The ΔTm values were calculated by subtracting Tm of the free nucleic acid from Tm of the complex. Every ΔTm value reported here was the average of at least two measurements. The error in ΔTm is ±0.5 °C.

[9] = system: Bloodstream form T. b. brucei (strain 221); assay: Antitrypanosomal screening (resazurin); assay type: cell-based; conditions: Trypanosoma brucei; for IC90: concentration that inhibited growth by 90%, mean ± SEM; for IC50: mean of triplicate ± SEM
Procedure: Resazurin (20 μl at 0.125 mg ml^−1) was added after 48 h, the plates were incubated for a further 16 h, and then read in a Spectramax plate reader, and data analysed using GraphPad Prism. Each drug was tested in triplicate.

calf thymus ctDNA = assay: Fluorimetric titration with ctDNA; assay type: binding; conditions: for I/I0: fluorescence intensity of complex / starting intensity, ctDNA, pH 7.0; for LogKs: fluorescence titration with ctDNA, Scatchard, fixed n = 0.6, pH 7.0, sodium cacodylate I = 0.05 mol dm−3
Procedure: The calf thymus ctDNA was additionally sonicated and filtered through a […]. Polynucleotide concentration was determined spectroscopically[50]^,[51] as the concentration of phosphates. Fluorescence spectra were recorded on a Varian Cary Eclipse spectrophotometer at 25 °C using appropriate 1 cm path quartz cuvettes. […] In fluorimetric experiments, an excitation wavelength of λexc ≥300 nm was used to avoid the inner filter effect caused due to increasing absorbance of the polynucleotide. Emissions were determined in the range λem = 350–650 nm. Values for Ks were obtained by processing titration data using the Scatchard equation[52].

[10] = system: HFF-1 (human foreskin fibroblasts); assay: Proliferation assay (MTT, 72 h) on normal fibroblasts HFF-1; assay type: cell-based; conditions: HFF-1 normal fibroblasts
Procedure: as §1, §2

poly (dAdT)2 = assay: Thermal denaturation of p(dAdT)2; assay type: binding; conditions: r = [compound]/[polynucleotide] = 0.3, pH 7.0; error ±0.5 °C
Procedure: as §3, §4

[11] = system: Bloodstream form T. b. brucei (strain 221); conditions: read-out: T. brucei IC50; reference drug; ref Wilkinson et al.[54]; cited from earlier work

| SMILES | IC50 [1] [nM] | IC50 [2] [nM] | IC50 [3] [nM] | IC50 [4] [nM] | IC50 [5] [nM] | IC50 [6] [nM] | induced CD (ICD) signal with ctDNA (ctDNA [7]) | binding mode to ctDNA (ctDNA [7]) | ΔTm ctDNA (ctDNA [8]) [°C] | IC90 [9] [nM] | IC50 [9] [nM] | I/I0 (calf thymus ctDNA) | LogKs (calf thymus ctDNA) | IC50 [10] [nM] | ΔTm p(dAdT)2 (poly (dAdT)2) [°C] | melting point [°C] | IC50 [11] [nM] |
| --- | --- | --- | --- | --- | --- | --- | --- | --- | --- | --- | --- | --- | --- | --- | --- | --- | --- |
| O=c1[nH]cc(F)c(=O)[nH]1 [5-FU, 5-Fluorouracil, reference compound] | 6450 ± 660 | 940 | 47500 ± 1930 | 6400 ± 220 | 90 ± 10 |  |  |  |  |  |  |  |  |  |  |  |  |
| N=C(N)c1ccc2nc(-c3ccc(OCc4cn(-c5ccc(Cl)cc5)nn4)cc3)sc2c1 [10b] |  |  | 1240 ± 600 | 3050 ± 820 | 870 ± 180 | 1460 ± 450 | small negative ICD signal | intercalation | 2.7 | 810 ± 40 | 540 ± 130 | 0.12 | 6.6 | 170 ± 130 | 2.3 |  |  |
| CS(=O)(=O)O.c1ccc(-n2cc(COc3nc4ccc(C5=NCCN5)cc4s3)nn2)cc1 [11a, 6-(4,5-Dihydro-1H-imidazol-3-ium-2-yl)-2-[(1-phenyl-1H-1,2,3-triazol-4-yl)methoxy] benzothiazole methanesulfonate] | 450 ± 10 |  | 570 ± 190 | 460 ± 30 | 490 ± 10 | < 200 | bisignate signal with maxima at 317 and 360 nm | dimer within the minor groove; also recorded: minor groove binding | 2.1 | 280 ± 30 | 230 ± 20 | 0.18 | 6.8 | 260 ± 20 | 4.1 | 270 to 274 |  |
| CS(=O)(=O)O.Clc1ccc(-n2cc(COc3nc4ccc(C5=NCCN5)cc4s3)nn2)cc1 [11b, 6-(4,5-Dihydro-1H-imidazol-3-ium-2-yl)-2-{[1-(4-chlorophenyl)-1H-1,2,3-triazol-4-yl]methoxy}benzothiazole methanesulfonate] | 3090 ± 190 |  | 2610 ± 420 | 2840 ± 190 | 3120 ± 360 | < 2000 | small negative ICD signal | intercalation | 1.2 | 120 ± 30 | 90 ± 20 | 0.21 | 6.6 | 170 ± 90 | 1.1 | 263 to 266 |  |
| CS(=O)(=O)O.Clc1ccc(-n2cc(COc3nc4ccc(C5=NCCCN5)cc4s3)nn2)cc1 [12b, 6-(3,4,5,6-Tetrahydropyrimidin-1-ium-2-yl)-2-[(1-(4-Chlorophenyl)-1H-1,2,3-triazol-4-yl]methoxy)benzothiazole methanesulfonate] | 3550 ± 810 |  | 2810 ± 580 | 660 ± 210 | 3910 ± 1190 | 2320 ± 180 | positive induced CD spectra | minor groove binding mode |  | 1190 ± 20 | 910 ± 80 | 0.31 | 7.0 | 240 ± 90 |  | 220 to 224 |  |
| CS(=O)(=O)O.c1ccc(-n2cc(-c3nc4ccc(C5=NCCN5)cc4s3)nn2)cc1 [14a, 6-(4,5-Dihydro-1H-imidazol-3-ium-2-yl)-2-(1-phenyl-1H-1,2,3-triazole-4-yl)benzothiazole methanesulfonate] | 450 ± 190 |  | 670 ± 60 | 250 ± 160 | 520 ± 260 | < 2000 |  |  | 0.7 | 530 ± 30 | 400 ± 20 | 0.54 | 5.6 | 120 ± 10 | 2.6 |  |  |
| CS(=O)(=O)O.Clc1ccc(-n2cc(-c3nc4ccc(C5=NCCN5)cc4s3)nn2)cc1 [14b, 6-(4,5-Dihydro-1H-imidazol-3-ium-2-yl)-2-[1-(4-chlorophenyl)-1H-1,2,3-triazole-4-yl]benzothiazole methanesulfonate] | 2420 ± 60 |  | 480 ± 10 | 350 ± 130 | 1770 ± 180 | < 2000 |  |  | 2.2 | 480 ± 20 | 320 ± 60 | 0.45 | 5.0 | 360 ± 180 | 3.6 | > 300 |  |
| COc1ccc(-n2cc(-c3nc4ccc(C5=NCCN5)cc4s3)nn2)cc1.CS(=O)(=O)O [14c, 6-(4,5-Dihydro-1H-imidazol-3-ium-2-yl)-2-[1-(4-methoxyphenyl)-1H-1,2,3-triazole-4-yl]benzothiazole methanesulfonate] | 480 ± 30 |  | 380 ± 100 | 360 ± 90 | 540 ± 10 | < 2000 |  |  | 0 | 490 ± 10 | 310 ± 20 |  |  | 180 ± 10 | 4.5 | > 300 |  |
| CS(=O)(=O)O.Clc1ccc(-n2cc(-c3nc4ccc(C5=NCCCN5)cc4s3)nn2)cc1 [15b, 6-(3,4,5,6-Tetrahydropyrimidin-1-ium-2-yl)-2-[1-(4-chlorophenyl)-1H-1,2,3-triazole-4-yl]benzothiazole methanesulfonate] | 710 ± 170 |  | 2270 ± 80 | 890 ± 310 | 2100 ± 1090 | 7690 ± 160 | positive induced CD spectra | minor groove binding mode | 0 | 3840 ± 650 | 1120 ± 230 | 0.35 | 5.4 | 740 ± 50 | 5.4 | 288 to 293 |  |
| CC1CS(=O)(=O)CCN1/N=C/c1ccc([N+](=O)[O-])o1 (centres unmarked) [Nifurtimox] |  |  |  |  |  |  |  |  |  |  |  |  |  |  |  |  | 2000 ± 240 |
